Laboratory results reported in patent publication US20250188110A1, “SPECIFIC SMALL MOLECULE INHIBITORS THAT BLOCK KMT9 METHYLTRANSFERASE ACTIVITY AND FUNCTION” (ALBERT-LUDWIGS-UNIVERSITÄT FREIBURG, priority 2021, published 2025).
Like-named read-outs stand apart in the source and are kept apart here.

Legend:
KMT9 [1] = target: T1, KMT9 (Homo sapiens, UniProt Q9Y5N5); experiment: KMT9 methyltransferase inhibition assay, 3H-SAM scintillation (entries 1-154); assay type: biochemical; details: entries 1-154: 3H-SAM assay, 25 nM KMT9, 5 μM ETF1
T1 sequence (Q9Y5N5 1-214): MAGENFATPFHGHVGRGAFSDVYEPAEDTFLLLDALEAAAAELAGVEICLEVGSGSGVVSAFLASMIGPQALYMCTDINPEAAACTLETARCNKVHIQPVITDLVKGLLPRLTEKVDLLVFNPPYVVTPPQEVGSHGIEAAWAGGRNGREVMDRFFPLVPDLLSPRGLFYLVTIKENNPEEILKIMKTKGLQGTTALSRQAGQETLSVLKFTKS
T1 sequence (Q9UI30 1-120 isoform Q9UI30-2 partner): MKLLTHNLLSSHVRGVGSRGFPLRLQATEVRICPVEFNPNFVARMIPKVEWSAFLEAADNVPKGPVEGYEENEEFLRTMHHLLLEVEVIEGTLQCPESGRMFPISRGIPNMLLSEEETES
Method: The assay was carried out in 0.5 mL Eppendorf tubes in duplicates. Assay buffer consisted of 50 mM BTP, 1 mM MgCl2, 1 mM DTT and 0.01% Triton-X^100 at a pH of 8.5 (adjusted using 1 M HCl and 1 M NaOH). 20X inhibitor stock (in DMSO), 2X enzyme stock and 4X substrate mix (both in assay buffer) were prepared. The substrate mix consisted of Tritium-labelled S-adenosylmethionine (3H-SAM), S-adenosylmethionine (SAM) and eukaryotic peptide chain release factor subunit1 (Homo sapiens, residues 140-275)(ETF1). Final assay concentrations were set to 25 nM KMT9, 0.3 μM 3H-SAM, 0.7 µM SAM and 5 μM ETF1. […] 5 μL of 4x substrate mix was added to initiate the reaction. The final reaction volume was 20 μL. For the positive control, the compound of formula (I) was replaced by DMSO; for the negative control, the compound of formula (I) was replaced by DMSO and KMT9 was replaced by assay buffer. The reaction mix was incubated in an Eppendorf thermomixer comfort at 30° C. for 2 h, shaking at 300 rpm. The reaction was quenched using 5 μL 50% trichloroacetic acid (TCA) and incubated at 25° C. for 5 minutes. 22 μL of the mixture was transferred into 96-well MultiScreen@HTS FB filter plates (Merck KGaA, Darmstadt, Germany) and washed four times with 10% TCA and two times with 100% ethanol. The plate was dried overnight, the filters were transferred into individual 6 mL Pony Vials (Perkin Elmer Inc, Waltham, MA, USA) and incubated in 3 mL of Ultima Gold scintillation cocktail (Perkin Elmer Inc, Waltham, MA, USA) for 30 minutes. The scintillation signal was measured for 3x 1 min using TriCarb 2910 TR (Perkin Elmer) scintillation counter in 3H CPM mode (LL: 0, UL: 18.6). Inhibition was calculated using the following formula: […]
With xc: signal of compound, Xpos: mean signal of positive control, Xneg: mean signal of negative control. Data fitting was carried out by GraphPad 7.0 using nonlinear fit ([Inhibitor]vs. response-variable slope (four parameters)).
For the results of the methyltransferase inhibition assay shown as “Inhibition” in Table 1, “I” represents an IC50 less than 0.1 μM, “II” represents an IC50 equal or higher than 0.1 μM and less than 1 μM, “III” represents an IC50 equal or higher than 1 µM and less than 10 µM and “IV” represents an IC50 equal or higher than 10 µM

KMT9 [2] = target: T1, KMT9; experiment: Microscale thermophoresis (MST) KMT9 binding
Method: To determine the binding affinity of the compounds according to the present invention and KMT9, microscale thermophoresis (MST) analysis was performed with a NanoTemper Monolith NT.115 instrument (NanoTemper Technologies GmbH). KMT9 was labelled with a RED-Tris-NTA labelling kit (NanoTemper Technologies GmbH) based on the manufacturer's instructions. Buffer including 25 mM HEPES (pH 7.5), 100 mM NaCl, 1 mM DTT and 0.05% Tween was used for the reaction buffer. Varying concentrations of the tested compounds of formula (I) as indicated in Table 1 were titrated against His-tag labelled KMT9 proteins (20 nM). Samples were loaded into standard Capillaries (NanoTemper Technologies GmbH) and MST measurements were performed using 40% MST power and 100% LED power. For each set of binding experiments, MST measurement was carried out with Binding Affinity module in MO.Control program under Nano-RED Excitation. Datasets were processed with the MO.Affinity Analysis software (NanoTemper Technologies GmbH).
For the results of the microscale thermophoresis (MST) assay shown as “MST” in Table 1, “A” represents a Kd of equal to or less than 10 nM (Kd≤10 nM); “B” represents a Kd of greater than 10 nM and equal to or less than 100 nM (10 nM<Kd<100 nM); “C” represents a Kd of greater than 100 nM and equal to or less than 1000 nM (100 nM<Kd ≤ 1000 nM); “D” represents a Kd of greater than 1000 nM (1000 nM<Kd).

KMT9 [3] = target: T1, KMT9; experiment: KMT9 thermal shift assay (SyproOrange); assay type: binding; details: 500 µM compound
Method: The assay was carried out in 96-well Hard-Shell PCR plates (Bio-Rad Laboratories Inc.). Assay buffer consisted of 50 mM BTP, 1 mM MgCl2 and 1 mM DTT at a pH of 8.5 (adjusted using 1 M HCl and 1 M NaOH). 20X inhibitor stock (in DMSO), 2X enzyme stock and 4X SyproOrange (SO) stock (both in assay buffer) were prepared. 1 μL of 20X compound, 4 μL of assay buffer, 10 μL of 2X KMT9 and 5 μL of 4X SO were pipetted. For the no-compound control, 20X inhibitor stock was replaced by DMSO. The final volume was 20 μL. The plate was spun down at 700 rpm for 1 min using a Hettich UNIVERSAL 320 centrifuge and incubated at 25° C., shaking at 600 rpm. After incubation, the plate was spun down for 1 min at 700 rpm and measurement was conducted using a CFX96 Touch Real-Time PCR Detection System (Bio-Rad Laboratories Inc.). The plate was equilibrated at 20° C. for 4 min and then heated stepwise at a rate of 1° C. per 15 s until 95° C. After every step, fluorescence was measured in FRET mode. Calculation of melting points was conducted by a Boltzman sigmoidal model using GraphPad Prism 7.0.
For the results of the thermal shift assay shown as “Thermal shift” in Table 1, “++++” represents a ΔTm of greater 20 K, “+++” represents a ΔTm of greater than 15 K and less than or equal to 20 K (15 K<ΔTm≤20 K); “++” represents a ΔTm of greater than 10 K and less than or equal to 15 K (10 K<ΔTm ≤ 15 K); “+” represents a ΔTm of equal to or less than 10 K (ΔTm≤10 K).

[4] = microscale thermophoresis, His-tag labelled KMT9 (20 nM), read-out: MST
[5] = ΔTm, 2 μM KMT9, 5X SO, read-out: Thermal shift
[6] = 2 μM KMT9, read-out: Thermal shift (ΔTm)

SMILES | IC50 (KMT9 [1]) [nM] | Kd (KMT9 [2]; [4]) [nM] | ΔTm at 500 µM (KMT9 [3]; [5]) [°C] | ΔTm at 500 µM (KMT9 [3]; [6]) [°C] | Kd (KMT9 [2]; His-tag labelled KMT9 20 nM, read-out: MST (Kd)) [nM]
CNc1ncnc2c1ccn2[C@@H]1C[C@H](CNCCC(=O)NCCc2ccccc2)[C@@H](O)[C@H]1O (racemic) [434 (306), 3-((((1R,2R,3S,4R)-2,3-dihydroxy-4-(4-(methylamino)-7H-pyrrolo[2,3-d]pyrimidin-7-yl)cyclopentyl)methyl)amino)-N-phenethylpropanamide and 3-((((1S,2R,3S,4R)-2,3-dihydroxy-4-(4-(methylamino)-7H-pyrrolo[2,3-d]pyrimidin-7-yl)cyclopentyl)methyl)amino)-N-phenethylpropanamide] | > 10000 | > 1000 | ≤ 10 |  | 
CNc1ncnc2c1ccn2[C@@H]1C[C@H](CNCC2CNCCO2)[C@@H](O)[C@H]1O (mixture of isomers) [435 (307), (1R,2S,3R,5R)-3-(4-(methylamino)-7H-pyrrolo[2,3-d]pyrimidin-7-yl)-5-(((morpholin-2-ylmethyl)amino)methyl) cyclopentane-1,2-diol and (1R,2S,3R,5S)-3-(4-(methylamino)-7H-pyrrolo[2,3-d]pyrimidin-7-yl)-5-(((morpholin-2-ylmethyl)amino)methyl) cyclopentane-1,2-diol] | > 10000 | > 1000 | ≤ 10 |  | 
CNc1ncnc2c1ccn2[C@@H]1C[C@H](CN2CCC[C@]23CCCNC3)[C@@H](O)[C@H]1O (single isomer, unassigned) [449 (321)] | > 10000 | > 1000 | ≤ 10 |  | 
CNc1ncnc2c1ccn2[C@@H]1C[C@H](CN2CCC[C@@]23CCCNC3)[C@@H](O)[C@H]1O (single isomer, unassigned) [450 (322)] | > 10000 | > 1000 | ≤ 10 |  | 
CNc1ncnc2c1ccn2[C@@H]1C[C@H](CNCCCNCCc2cccc(Oc3ccccc3)c2)[C@@H](O)[C@H]1O [287 (184)] | 1000 to 10000 | 100 to 1000 | 10 to 15 |  | 
CNc1ncnc2c1ccn2[C@@H]1C[C@H](CNCCCNCCc2cccc(N(C)c3ccccc3)c2)[C@@H](O)[C@H]1O [289 (186), (1S,2R,3R,5R)-3-(((3-((3-(methyl(phenyl)amino)phenethyl)amino)propyl)amino)methyl)-5-(4-(methylamino)-7H-pyrrolo[2,3-d]pyrimidin-7-yl) cyclopentane-1,2-diol] | > 10000 | > 1000 | 10 to 15 |  | 
CNc1ncnc2c1ccn2[C@@H]1C[C@H](CNCCCNCCc2ccccc2)[C@@H](O)[C@H]1O [291 (188), (1R,2S,3R,5R)-3-(4-(methylamino)-7H-pyrrolo[2,3-a]pyrimidin-7-yl)-5-(((3-(phenethylamino)propyl)amino)methyl) cyclopentane-1,2-diol] | 1000 to 10000 | > 1000 | 10 to 15 |  | 
Nc1ncnc2c1c(-c1ccccc1)cn2[C@@H]1C[C@H](CNCCCNCCc2ccc(F)cc2)[C@@H](O)[C@H]1O [340 (244), (1R,2S,3R,5R)-3-(4-amino-5-phenyl-7H-pyrrolo[2,3-d]pyrimidin-7-yl)-5-(((3-((4-fluorophenethyl)amino)propyl)amino)methyl) cyclopentane-1,2-diol] | 100 to 1000 | 10 to 100 |  |  | 
Nc1ncnc2c1ncn2[C@@H]1O[C@H](C(=O)NCCCNCCc2ccc3ccccc3c2)[C@@H](O)[C@H]1O [688 (222), (2S,3S,4R,5R)-5-(6-amino-9H-purin-9-yl)-3,4-dihydroxy-N-(3-((2-(naphthalen-2-yl)ethyl)amino)propyl) tetrahydrofuran-2-carboxamide] | > 10000 |  |  |  | 
O[C@@H]1[C@H](O)[C@@H]([C@@H]2CCCNC2)C[C@H]1n1cc(-c2nccs2)c2cncnc21 [Compound 401, (1S,2R,3R,5R)-3-((S)-piperidin-3-yl)-5-(5-(thiazol-2-yl)-7//pyrrolo[2,3-a]pyrimidin-7-yl) cyclopentane-1,2-diol] |  |  |  | ≤ 10 | 
O[C@@H]1[C@H](O)[C@@H]([C@H]2CCCNC2)C[C@H]1n1cc(-c2nccs2)c2cncnc21 [Compound 402, (1S,2R,3R,5R)-3-((R)-piperidin-3-yl)-5-(5-(thiazol-2-yl)-7H-pyrrolo[2,3-a]pyrimidin-7-yl) cyclopentane-1,2-diol] |  |  |  | ≤ 10 | 
O[C@@H]1[C@H](O)[C@@H]([C@H]2CCCNC2)C[C@H]1n1ccc2c(C(F)F)ncnc21 [Compound 403, (1R,2S,3R,5R)-3-(4-(difluoromethyl)-7H-pyrrolo[2,3-d]pyrimidin-7-yl)-5-((R)-piperidin-3-yl) cyclopentane-1,2-diol] |  |  |  | ≤ 10 | 
Nc1nc(Cl)nc2c1c(-c1ccn(S(=O)(=O)c3ccccc3)n1)cn2[C@@H]1C[C@H](C2CCN(CC3CC3)CC2)[C@@H](O)[C@H]1O [Compound 520, (1R,2S,3R,5R)-3-{4-Amino-5-[1-(benzenesulfonyl)pyrazol-3-yl]-2-chloropyrrolo[2,3-d]pyrimidin-7-yl}-5-[1-(cyclopropylmethyl)piperidin-4-yl]cyclopentane-1,2-diol] |  |  |  | > 20 | ≤ 10
CNc1ncnc2c1ccn2[C@@H]1C[C@H]([C@@H]2C[C@@H]2CCCNCCc2ccccc2)[C@@H](O)[C@H]1O [Compound 683, (1R,2S,3R,5R)-3-(4-(methylamino)-7H-pyrrolo[2,3-d]pyrimidin-7-yl)-5-((1R,2S)-2-(3-(phenethylamino)propyl)cyclopropyl)cyclopentane-1,2-diol] |  | > 1000 | ≤ 10 |  | 
